Reference: US20090036448A1, “PYRIMIDINE DERIVATIVES AND METHODS OF TREATMENT RELATED TO THE USE THEREOF” (TAISHO PHARMECUTICAL CO., LTD., priority 2004, published 2009)
Where a name gives a salt, the structure may show the parent alone.

Each compound was assayed against MCH receptor (Homo sapiens, UniProt Q99705) (assay: FLIPR/FDSS6000 functional assay: intracellular Ca2+ changes evoked by MCH). Details: class by percent of control at 10^−7 M or by IC50; antagonist activity, 50 nM of MCH; read-out: class.
Assay type: cell-based
Text: Subsequently, a functional based assay was used to confirm the lead hits, referred to as FLIPR™ (the Fluorometric Imaging Plate Reader) and FDSS6000™ (Functional Drug Screening System). This assay utilized a non-endogenous, constitutively active version of the MCH receptor.
The FLIPR and FDSS assays are able to detect intracellular Ca^2+ concentration in cells, which can be utilized to assess receptor activation and determine whether a candidate compound is an, for example, antagonist, inverse agonist or agonist to a Gq-coupled receptor. The concentration of free Ca^2+ in the cytosol of any cell is extremely low, whereas its concentration in the extracellular fluid and endoplasmic reticulum (ER) is very high. Thus, there is a large gradient tending to drive Ca^2+ into the cytosol across both the plasma membrane and ER. The FLIPR™ and FDSS6000™ systems (Molecular Devices Corporation, HAMAMATSU Photonics K.K.) are designed to perform functional cell-based assays, such as the measurement of intracellular calcium for high-throughput screening. The measurement of fluorescent is associated with calcium release upon activation of the Gq-coupled receptors.
Fluorometric Imaging Plate Reader system was used to allow for rapid, kinetic measurements of intracellular fluorescence in 96 well microplates (or 384 well microplates). Simultaneous measurements of fluorescence in all wells can be made by FLIPR or FDSS6000™ every second with high sensitivity and precision. These systems are ideal for measuring cell-based functional assays such as monitoring the intracellular calcium fluxes that occur within seconds after activation of the Gq coupled receptor.
Briefly, the cells are seeded into 96 well at 5.5×10^4 cells/well with complete culture media (Dulbecco's Modified Eagle Medium with 10% fetal bovine serum, 2 mM L-glutamine, 1 mM sodium pyruvate and 0.5 mg/mL G418, pH 7.4) for the assay next day. On the day of assay, the media is removed and the cells are incubated with 100 μl of loading buffer (4 μM Fluo-4-AM in complete culture media containing 2.5 mM Probenicid, 0.5 mg/ml and 0.2% bovine serum albumin) in 5% CO2 incubator at 37° C. for 1 hr. The loading buffer is removed, and the cells are washed with wash buffer (Hank's Balanced Salt Solution containing 2.5 mM Probenicid, 20 mM HEPES, 0.5 mg/mL and 0.2% bovine serum albumin, pH 7.4). One hundred fifty μl of wash buffer containing various concentrations of test compound is added to the cells, and the cells are incubated in 5% CO2 incubator at 37° C. for 30 min. Fifty μl of wash buffer containing various concentration of MCH are added to each well, and transient changes in [Ca^2+]i evoked by MCH are monitored using the FLIPR or FDSS in 96 well plates at Ex. 488 nm and Em. 530 nm for 290 second. When antagonist activity of compound is tested, 50 nM of MCH is used.
Use of FLIPR™ and FDSS6000™ can be accomplished by following manufacturer's instruction (Molecular Device Corporation and HAMAMATSU Photonics K.K.).

| IC50 | SMILES |
| --- | --- |
| > 200 nM | CCN(C)c1nccc(N[C@H]2CC[C@@H](NC(=O)c3ccc(F)c(F)c3)CC2)n1 [Example 35, N-[cis-4-({2-[Ethyl(methyl)amino]pyrimidine-4-yl}amino)cyclohexyl]-3,4-difluorobenzamide hydrochloride] |
| > 200 nM | CN(CCO)c1nccc(N[C@H]2CC[C@@H](NC(=O)c3ccc(F)c(F)c3)CC2)n1 [Example 36, 3,4-Difluoro-N-[cis-4-({2-[(2-hydroxyethyl)(methyl)amino]pyrimidin-4-yl}amino)-cyclohexyl]benzamide hydrochloride] |
| > 200 nM | Cc1nc(N[C@H]2CC[C@@H](NC(=O)c3ccc(F)c(Cl)c3)CC2)cc(N2CCCCC2)n1 [Example 37, 3-Chloro-4-fluoro-N-{cis-4-[(2-methyl-6-piperidin-1-ylpyrimidin-4-yl)amino]cyclohexyl}-benzamide hydrochloride] |
| > 200 nM | Cc1nc(N[C@H]2CC[C@@H](NC(=O)c3ccc(F)c(Cl)c3)CC2)cc(-n2ccnc2)n1 [Example 38, 3-Chloro-4-fluoro-N-(cis-4-{[6-(1H-imidazol-1-yl)-2-methylpyrimidin-4-yl]amino}cyclohexyl)-benzamide dihydrochloride] |
| 50 to 200 nM | Cc1nc(N[C@H]2CC[C@@H](NC(=O)c3ccc(F)c(Cl)c3)CC2)cc(N2CCOCC2)n1 [Example 39, 3-Chloro-4-fluoro-N-{cis-4-[(2-methyl-6-morpholin-4-ylpyrimidin-4-yl)amino]cyclohexyl}-benzamide hydrochloride] |
| < 50 nM | Cc1nc(N[C@H]2CC[C@@H](NC(=O)c3ccc(F)c(Cl)c3)CC2)cc(N2CCCC2)n1 [Example 40, 3-Chloro-4-fluoro-N-{cis-4-[(2-methyl-6-pyrrolidin-1-ylpyrimidin-4-yl)amino]cyclohexyl}-benzamide hydrochloride] |
| > 200 nM | Cc1nc(N[C@H]2CC[C@@H](NC(=O)c3ccc(F)c(Cl)c3)CC2)cc(N2CCN(C)CC2)n1 [Example 41, 3-Chloro-4-fluoro-N-(cis-4-{[2-methyl-6-(4-methylpiperazin-1-yl)pyrimidin-4-yl]amino}-cyclohexyl)benzamide dihydrochloride] |
| 50 to 200 nM | Cc1cc(N[C@H]2CC[C@@H](NC(=O)c3ccc(F)c(F)c3)CC2)nc(N(C)C)n1 [Example 43, N-(cis-4-{[2-(Dimethylamino)-6-methylpyrimidin-4-yl]amino}cyclohexyl)-3,4-difluorobenzamide hydrochloride] |
| < 50 nM | CN(C)c1nccc(N[C@H]2CC[C@@H](NC(=O)c3ccc(F)c(Cl)c3)CC2)n1 [Example 44, 3-Chloro-N-(cis-4-{[2-(dimethylamino)pyrimidin-4-yl]amino}cyclohexyl)-4-fluorobenzamide hydrochloride] |
| 50 to 200 nM | Cc1cc(N[C@H]2CC[C@@H](NC(=O)c3ccc(F)c(Cl)c3)CC2)nc(N(C)C)n1 [Example 45, 3-Chloro-N-(cis-4-{([2-(dimethylamino)-6-methylpyrimidin-4-yl]amino}cyclohexyl)-4-fluorobenzamide hydrochloride] |
| > 200 nM | Cc1cnc(N(C)C)nc1N[C@H]1CC[C@@H](NC(=O)c2ccc(F)c(Cl)c2)CC1 [Example 46, 3-Chloro-N-(cis-4-{[2-(dimethylamino)-5-methylpyrimidin-4-yl]amino}cyclohexyl)-4-fluorobenzamide hydrochloride] |
| > 200 nM | CN(C)c1cc(N[C@H]2CC[C@@H](NC(=O)c3ccc(F)c(Cl)c3)CC2)nc(C(F)(F)F)n1 [Example 47, 3-Chloro-N-(cis-4-{[6-(dimethylamino)-2-(trifluoromethyl)pyrimidin-4-yl]amino}cyclohexyl)-4-fluorobenzamide hydrochloride] |
| > 200 nM | Cc1nc(N)cc(N[C@H]2CC[C@@H](NC(=O)c3cc(F)c(F)c(F)c3)CC2)n1 [Example 168, N-{cis-4-[(6-Amino-2-methylpyrimidin-4-yl)amino]cyclohexyl}-3,4,5-trifluorobenzamide hydrochloride] |
| 50 to 200 nM | CNc1cc(N[C@H]2CC[C@@H](NC(=O)c3cc(F)c(F)c(F)c3)CC2)nc(C)n1 [Example 169, 3,4,5-Trifluoro-N-(cis-4-{[2-methyl-6-(methylamino)pyrimidin-4-yl]amino}cyclohexyl)-benzamide hydrochloride] |
| > 200 nM | Cc1cc(N[C@H]2CC[C@@H](NC(=O)c3ccc(F)c(Cl)c3)CC2)nc(C)n1 [Example 171, 3-Chloro-N-{cis-4-[(2,6-dimethylpyrimidin-4-yl)amino]cyclohexyl}-4-fluorobenzamide hydrochloride] |
| > 200 nM | Cc1nc(Cl)cc(N[C@H]2CC[C@@H](NC(=O)c3cc(F)c(F)c(F)c3)CC2)n1 [Example 172, N-{cis-4-[(6-Chloro-2-methylpyrimidin-4-yl)amino]cyclohexyl}-3,4,5-trifluorobenzamide] |
| > 200 nM | Cc1nc(NC2CC2)cc(N[C@H]2CC[C@@H](NC(=O)c3cc(F)c(F)c(F)c3)CC2)n1 [Example 173, N-(cis-4-{[6-(Cyclopropylamino)-2-methylpyrimidin-4-yl]amino}cyclohexyl)-3,4,5-trifluorobenzamide hydrochloride] |
| > 200 nM | Cc1nc(N[C@H]2CC[C@@H](NC(=O)c3cc(F)c(F)c(F)c3)CC2)cc(N(C)c2ccccc2)n1 [Example 174, 3,4,5-Trifluoro-N-[cis-4-({2-methyl-6-[methyl(phenyl)amino]pyrimidin-4-yl}amino)-cyclohexyl]benzamide hydrochloride] |
| > 200 nM | Cc1nc(N[C@H]2CC[C@@H](NC(=O)c3cc(F)c(F)c(F)c3)CC2)cc(N(C)Cc2ccccc2)n1 [Example 175, N-[cis-4-({6-[Benzyl(methyl)amino]-2-methylpyrimidin-4-yl}amino)cyclohexyl]-3,4,5-trifluorobenzamide hydrochloride] |
| > 200 nM | CCN(C)c1cc(N[C@H]2CC[C@@H](NC(=O)c3cc(F)c(F)c(F)c3)CC2)nc(C)n1 [Example 176, N-[cis-4-({6-[Ethyl(methyl)amino]-2-methylpyrimidin-4-yl}amino)cyclohexyl]-3,4,5-trifluorobenzamide hydrochloride] |
| < 50 nM | CCc1nc(N[C@H]2CC[C@@H](NC(=O)c3cc(F)c(F)c(F)c3)CC2)cc(N(C)C)n1 [Example 177, N-(cis-4-{[6-(Dimethylamino)-2-ethylpyrimidin-4-yl]amino}cyclohexyl)-3,4,5-trifluorobenzamide hydrochloride] |
| > 200 nM | CN(C)c1cc(N[C@H]2CC[C@@H](NC(=O)c3ccc(F)c(Cl)c3)CC2)nc(-c2ccccc2)n1 [Example 178, 3-Chloro-N-(cis-4-{[6-(dimethylamino)-2-phenylpyrimidin-4-yl]amino}cyclohexyl)-4-fluorobenzamide hydrochloride] |
| < 50 nM | CN(C)c1cc(N[C@H]2CC[C@@H](NC(=O)c3ccc(F)c(Cl)c3)CC2)nc(Cc2ccccc2)n1 [Example 179, N-(cis-4-{[2-Benzyl-6-(dimethylamino)pyrimidin-4-yl]amino}cyclohexyl)-3-chloro-4-fluorobenzamide hydrochloride] |
| > 200 nM | Cc1nc(N[C@H]2CC[C@@H](NC(=O)c3ccc(F)c(Cl)c3)CC2)c(C)c(N(C)C)n1 [Example 180, 3-Chloro-N-(cis-4-{[6-(dimethylamino)-2,5-dimethylpyrimidin-4-yl]amino}cyclohexyl)-4-fluorobenzamide hydrochloride] |
